CCOC(=O)OC1=C(c2cc(C)ccc2C)C(=O)NC12CCC(OC)CC2 (stereo unspecified)
solubility (mole fraction)
Settings | 278.15 K | 283.15 K | 288.15 K | 293.15 K | 298.15 K | 303.15 K | 308.15 K | 313.15 K | 318.15 K
in acetone | 0.012 | 0.0151 | 0.0183 | 0.0221 | 0.0267 | 0.0323 | 0.0392 | 0.0472 | 0.0571
in ethanol | 0.00319 | 0.00386 | 0.00504 | 0.00624 | 0.008 | 0.0103 | 0.0132 | 0.0169 | 0.0219
in isopropanol | 0.00177 | 0.00232 | 0.0031 | 0.00415 | 0.00543 | 0.00711 | 0.00939 | 0.0125 | 0.0165
in methanol | 0.00534 | 0.00669 | 0.00803 | 0.01 | 0.0127 | 0.0159 | 0.0202 | 0.0257 | 0.0321
